Read-outs that look alike come from different tables or passages of the source.
What was measured:
p-S6 level in MCF7 cells = assay: Western blot of p-S6 level in MCF7 cells after combination treatment with Rapa/Rapalink and candidate compound (blockade score); format: cell-based; settings: 24 h, p-S6 level as fraction of DMSO control; for Rapamycin Blockade: 10 nM Rapa + 10 μM candidate compound; for RapaLink-1 Blockade: 10 nM Rapalink + 10 μM candidate compound
FKBP12 = FKBP12 (Homo sapiens (Human), UniProt P62942); assay: FKBP12 binding assay (fluorescence polarization)
[1] = system: mTOR signaling in brain and skeletal muscle; assay: In vivo brain/periphery mTOR inhibition in mouse model, blocker combined with rapamycin or RapaLink-1; settings: combination with rapamycin; muscle and brain
[2] = system: p-Tyr signaling in Jurkat cells; assay: Phosphotyrosine / TCR signaling in Jurkat cells (Western blot); format: cell-based; settings: Jurkat cells, 100 nM, 1 h, washed 3 times with PBS
Protocol: Jurkat cells (1×10^6/mL) were treated with 100 nM of the indicated compounds for 1 h, then were washed 3 times with PBS and resuspended in culture media. Samples were taken at the indicated time points and lysed immediately.

Chain of FKBP12 (P62942 whole entry): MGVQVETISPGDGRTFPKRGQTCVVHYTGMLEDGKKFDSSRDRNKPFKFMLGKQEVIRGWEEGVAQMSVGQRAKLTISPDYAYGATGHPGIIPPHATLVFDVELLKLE

Compound | Rapamycin Blockade (p-S6 level in MCF7 cells) | RapaLink-1 Blockade (p-S6 level in MCF7 cells) | Kd (FKBP12; read-out: Kd FKBP12) | other results
CCC(C)(C)C(=O)C(=O)N1CCCC[C@H]1C(=O)O[C@H](CCc1ccc(OC)c(OC)c1)c1cccc(N)c1 [SLF, reference compound] | 3 (>70%) | 0 (<20%) |  | 
CCC(C)(C)C(=O)C(=O)N1CCCC[C@H]1C(=O)O[C@H](CCc1ccc(OC)c(OC)c1)c1cccc(NC(=O)C[N+](C)(C)C)c1 [ZZY01-025] | 1 (20-40%) |  | 95 nM | 
CCC(C)(C)C(=O)C(=O)N1CCCC[C@H]1C(=O)O[C@H](CCc1ccc(OC)c(OC)c1)c1cccc(OCCN)c1 [ZZY01-038] | 1 (20-40%) |  | 9.4 nM | 
CCC(C)(C)C(=O)C(=O)N1CCCC[C@H]1C(=O)O[C@H](CCc1ccc(OC)c(OC)c1)c1cccc(NC(=O)CN)c1 [ZZY01-040] | 3 (>70%) |  | 21.3 nM | 
CCC(C)(C)C(=O)C(=O)N1CCCC[C@H]1C(=O)O[C@H](CCc1ccc(OC)c(OC)c1)c1cccc(OCC(=O)O)c1 [ZZY01-041] | 0 (<20%) |  | 38 nM | 
CCC(C)(C)C(=O)C(=O)N1CCCC[C@H]1C(=O)O[C@H](CCc1ccc(OC)c(OC)c1)c1cccc(NC(=O)CN2CCOCC2)c1 [ZZY01-043] | 3 (>70%) |  | 15 nM | 
CCC(C)(C)C(=O)C(=O)N1CCCC[C@H]1C(=O)O[C@H](CCc1ccc(OC)c(OC)c1)c1cccc(NC(=O)CN(C)C)c1 [ZZY01-044] | 3 (>70%) |  | 12.7 nM | 
CCC(C)(C)C(=O)C(=O)N1CCCC[C@H]1C(=O)O[C@H](CCc1ccc(OC)c(OC)c1)c1cccc(NC(=O)[C@H](C)N)c1 [ZZY01-059] | 3 (>70%) |  |  | 
CCC(C)(C)C(=O)C(=O)N1CCCC[C@H]1C(=O)O[C@H](CCc1ccc(OC)c(OC)c1)c1cccc(NCC(=O)O)c1 [ZZY01-060A] | 0 (<20%) |  |  | 
CCC(C)(C)C(=O)C(=O)N1CCCC[C@H]1C(=O)O[C@H](CCc1ccc(OC)c(OC)c1)c1cccc(N(CC(=O)O)CC(=O)O)c1 [ZZY01-060B] | 1 (20-40%) |  | 75 nM | 
CCC(C)(C)C(=O)C(=O)N1CCCC[C@H]1C(=O)O[C@H](CCc1ccc(OC)c(OC)c1)c1cccc(NC(=O)CNC(=N)N)c1 [ZZY01-065] | 2 (40%-70%) |  | 37.8 nM | 
CCC(C)(C)C(=O)C(=O)N1CCCC[C@H]1C(=O)O[C@H](CCc1ccc(OC)c(OC)c1)c1cccc(NC(=O)CNN)c1 [ZZY01-070] | 1 (20-40%) |  | 21 nM | 
CCC(C)(C)C(=O)C(=O)N1CCCC[C@H]1C(=O)O[C@H](CCc1ccc(OC)c(OC)c1)c1cccc(NC(=O)CN2CCN(C)CC2)c1 [ZZY01-072] | 3 (>70%) |  | 12.5 nM | 
CCC(C)(C)C(=O)C(=O)N1CCCC[C@H]1C(=O)O[C@H](CCc1ccc(OC)c(OC)c1)c1cccc(NC(=O)CCC(=O)O)c1 [ZZY01-083] | 1 (20-40%) |  |  | 
C=CC(=O)Nc1cccc([C@@H](CCc2ccc(OC)c(OC)c2)OC(=O)[C@@H]2CCCCN2C(=O)C(=O)C(C)(C)CC)c1 [ZZY02-014] | 3 (>70%) |  | 64 nM | 
CCC(C)(C)C(=O)C(=O)N1CCCC[C@H]1C(=O)O[C@H](CCc1ccc(OC)c(OC)c1)c1cccc(NCCN)c1 [ZZY02-032] | 0 (<20%) |  | 36.4 nM | 
CCC(C)(C)C(=O)C(=O)N1CCCC[C@H]1C(=O)O[C@H](CCc1ccc(OC)c(OC)c1)c1cccc(NC(=O)CCl)c1 [ZZY02-033] | 0 (<20%) |  |  | 
CCC(C)(C)C(=O)C(=O)N1CCCC[C@H]1C(=O)O[C@H](CCc1ccc(OC)c(OC)c1)c1cccc(NC(=O)CS)c1 [ZZY02-055] | 0 (<20%) |  | 63.8 nM | 

Compound | Rapamycin Blockade (p-S6 level in MCF7 cells) | RapaLink-1 Blockade (p-S6 level in MCF7 cells) | Kd (FKBP12; read-out: Kd FKBP12) | other results
CCC(C)(C)C(=O)C(=O)N1CCCC[C@H]1C(=O)O[C@H](CCc1ccc(OC)c(OC)c1)c1cccc(NC(=O)CN=[N+]=[N-])c1 [ZZY02-096] | 2 (40%-70%) |  | 6 nM | 
CCC(C)(C)C(=O)C(=O)N1CCCC[C@H]1C(=O)O[C@H](CCc1ccc(OC)c(OC)c1)c1cccc(NC(=O)CCOCCOCCN)c1 [ZZY03-077] | 3 (>70%) |  | 43.7 nM | 
CCC(C)(C)C(=O)C(=O)N1CCCC[C@H]1C(=O)O[C@H](CCc1ccc(OC)c(OC)c1)c1cccc(NC(=O)Cc2ccccn2)c1 [ZZY03-083] | 3 (>70%) | 0 (<20%) | 31.1 nM | 
CCC(C)(C)C(=O)C(=O)N1CCCC[C@H]1C(=O)O[C@H](CCc1ccc(OC)c(OC)c1)c1cccc(NC(=O)CCOCCN)c1 [ZZY03-084] | 2 (40%-70%) |  | 18.6 nM | 
CCC(C)(C)C(=O)C(=O)N1CCCC[C@H]1C(=O)O[C@H](CCc1ccc(OC)c(OC)c1)c1cccc(NC(=O)Cc2cccc[n+]2[O-])c1 [ZZY03-087] | 3 (>70%) | 0 (<20%) | 28.8 nM | In Vivo [1]: Blocks rapamycin in muscle, potentiates rapamycin in brain
CCC(C)(C)C(=O)C(=O)N1CCCC[C@H]1C(=O)O[C@H](CCc1ccc(OC)c(OC)c1)c1cccc(NC(=O)CNc2ccccn2)c1 [ZZY03-091] | 2 (40%-70%) |  | 37.3 nM | 
CO[C@H]1C/C(C)=C/[C@@H](CCCSCCN)C(=O)C[C@H](O)[C@@H](C)[C@@H](/C(C)=C/[C@@H]2CC[C@@H](O)[C@H](OC)C2)OC(=O)[C@@H]2CCCCN2C(=O)C(=O)[C@]2(O)O[C@H]([C@@H](OC)C1)[C@@H](OC)C[C@H]2C [ZZY05-011] | 3 (>70%) | 3 (>70%) |  | Kd (FKBP12): 0.69 nM
CO[C@H]1C/C(C)=C/[C@@H](C/C=C/C(=O)O)C(=O)C[C@H](O)[C@@H](C)[C@@H](/C(C)=C/[C@@H]2CC[C@@H](O)[C@H](OC)C2)OC(=O)[C@@H]2CCCCN2C(=O)C(=O)[C@]2(O)O[C@H]([C@@H](OC)C1)[C@@H](OC)C[C@H]2C [ZZY05-012] | 0 (<20%) | 0 (<20%) |  | Kd (FKBP12): 0.39 nM
CO[C@H]1C/C(C)=C/[C@@H](CCCSCCN(C)C)C(=O)C[C@H](O)[C@@H](C)[C@@H](/C(C)=C/[C@@H]2CC[C@@H](O)[C@H](OC)C2)OC(=O)[C@@H]2CCCCN2C(=O)C(=O)[C@]2(O)O[C@H]([C@@H](OC)C1)[C@@H](OC)C[C@H]2C [ZZY05-013] | 3 (>70%) | 3 (>70%) |  | Kd (FKBP12): 1.36 nM
CO[C@H]1C/C(C)=C/[C@@H](CCCC(=O)O)C(=O)C[C@H](O)[C@@H](C)[C@@H](/C(C)=C/[C@@H]2CC[C@@H](O)[C@H](OC)C2)OC(=O)[C@@H]2CCCCN2C(=O)C(=O)[C@]2(O)O[C@H]([C@@H](OC)C1)[C@@H](OC)C[C@H]2C [ZZY05-020] | 2 (40%-70%) | 0 (<20%) | 1.49 nM | 
CO[C@H]1C/C(C)=C/[C@@H](CCCC(=O)N2CCN(c3cc(Nc4ncc(C(=O)Nc5c(C)cccc5Cl)s4)nc(C)n3)CC2)C(=O)C[C@H](O)[C@@H](C)[C@@H](/C(C)=C/[C@@H]2CC[C@@H](O)[C@H](OC)C2)OC(=O)[C@@H]2CCCCN2C(=O)C(=O)[C@]2(O)O[C@H]([C@@H](OC)C1)[C@@H](OC)C[C@H]2C [ZZY05-022] |  |  |  | durability of effect after washout [2]: durable after washout
CO[C@H]1C/C(C)=C/[C@@H](CCCSC[C@H](N)C(=O)O)C(=O)C[C@H](O)[C@@H](C)[C@@H](/C(C)=C/[C@@H]2CC[C@@H](O)[C@H](OC)C2)OC(=O)[C@@H]2CCCCN2C(=O)C(=O)[C@]2(O)O[C@H]([C@@H](OC)C1)[C@@H](OC)C[C@H]2C [ZZY05-037] |  | 1 (20-40%) |  | Kd (FKBP12): 8.7 nM
CO[C@H]1C/C(C)=C/[C@@H](C/C=C/c2ccncc2)C(=O)C[C@H](O)[C@@H](C)[C@@H](/C(C)=C/[C@@H]2CC[C@@H](O)[C@H](OC)C2)OC(=O)[C@@H]2CCCCN2C(=O)C(=O)[C@]2(O)O[C@H]([C@@H](OC)C1)[C@@H](OC)C[C@H]2C [ZZY05-050] |  | 3 (>70%) |  | Kd (FKBP12): 3.6 nM
CO[C@H]1C/C(C)=C/[C@@H](C/C=C/c2cccc[n+]2[O-])C(=O)C[C@H](O)[C@@H](C)[C@@H](/C(C)=C/[C@@H]2CC[C@@H](O)[C@H](OC)C2)OC(=O)[C@@H]2CCCCN2C(=O)C(=O)[C@]2(O)O[C@H]([C@@H](OC)C1)[C@@H](OC)C[C@H]2C [ZZY05-060] |  | 1 (20-40%) | 0.62 nM | 
CO[C@H]1C/C(C)=C/[C@@H](C/C=C/c2cc[n+]([O-])cc2)C(=O)C[C@H](O)[C@@H](C)[C@@H](/C(C)=C/[C@@H]2CC[C@@H](O)[C@H](OC)C2)OC(=O)[C@@H]2CCCCN2C(=O)C(=O)[C@]2(O)O[C@H]([C@@H](OC)C1)[C@@H](OC)C[C@H]2C [ZZY05-061] |  | 0 (<20%) | 0.21 nM | 
CO[C@H]1C/C(C)=C/[C@@H](CCCC(=O)Nc2ccccn2)C(=O)C[C@H](O)[C@@H](C)[C@@H](/C(C)=C/[C@@H]2CC[C@@H](O)[C@H](OC)C2)OC(=O)[C@@H]2CCCCN2C(=O)C(=O)[C@]2(O)O[C@H]([C@@H](OC)C1)[C@@H](OC)C[C@H]2C [ZZY05-064] |  | 3 (>70%) | 0.2 nM | 
CO[C@H]1C/C(C)=C/[C@@H](CCCc2cc[n+]([O-])cc2)C(=O)C[C@H](O)[C@@H](C)[C@@H](/C(C)=C/[C@@H]2CC[C@@H](O)[C@H](OC)C2)OC(=O)[C@@H]2CCCCN2C(=O)C(=O)[C@]2(O)O[C@H]([C@@H](OC)C1)[C@@H](OC)C[C@H]2C [ZZY05-086] |  | 3 (>70%) |  | Kd (FKBP12): 1.6 nM
tacrolimus [FK506, reference compound] | 3 (>70%) | 3 (>70%) |  | 
